“Also recorded” adds a separate entry of the source.
What was measured:
hS1P1 = molecular target: T1, hS1P1 (Homo sapiens, UniProt P21453); test: Tango β-arrestin recruitment luciferase assay, Tango-hS1P1-CHO; assay type: cell-based; conditions: S1PR1; Tango-S1PR1-CHO-K1 cells; mean ± SD; read-out: EC50
T1 construct: expressed in transfected cells; host or cells: CHO
Procedure, shortened: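 CHO Tango cells (receptor–V2 tail–TEV/tTA fusion, β-arrestin 2–TEV, UAS-luciferase reporter) plated overnight (20 h) at 37°C, then treated 20 h with compounds, top final 45 µM, 9 five-fold dilutions, triplicates. Luciferase luminescence read; BAF-312 positive control at 1 µM (S1PR1) or 25 µM (S1PR4).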

[1] = Pharmacokinetic property testing in rats; assay type: in vivo, SD rats; conditions: for CL_obs / Vss_obs / AUC(0-t) / Cmax / half-life / Tmax / F (%): male SD rats; for AUC(0-t) / Cmax / half-life / Tmax / bioavailability: Sprague-Dawley, rat, in vivo; for Tmax: 3 per group; for bioavailability: male, oral, 10 mg/kg; for F (%): oral bioavailability, PO 10 mg/kg vs IV 1 mg/kg
From the text: In the structure-activity relationship discussion, the inventors obtained key compound 22. Based on compound 22, the polar head of the compound was modified as chiral pyrrolidine carboxylic acid, yielding selective S1PR4 agonists 30 and 67. We conducted pharmacokinetic property analyses on compounds 22, 30, and 67, respectively.

MRL/lpr mice = test: Systemic lupus erythematosus model, MRL/lpr mice; assay type: in vivo; conditions: for renal pathology (HE and PAS staining): 8 weeks of treatment
Description: Based on this, the inventor conducted efficacy evaluation on this compound using MRL/lpr mice, a classic model of lupus erythematosus.
The efficacy of Compound 67 was evaluated using MRL/Lpr lupus model mice.
The specific groups were as follows: MPJ control group, model group, positive drug Cenerimod group at 0.5 mg/kg, and Compound 67 at two doses: 1 mg/kg and 3 mg/kg.

SKG mice = test: Curdlan-induced ankylosing spondylitis (AS) model in SKG mice; assay type: in vivo; conditions: compound 30 3 mg/kg; for peripheral clinical symptom scores: Week 12, compound 67 3 mg/kg intragastric daily, adalimumab 10 mg/kg i.p., P < 0.05 vs model group; for swelling of the wrist and ankle joints / spinal CT imaging scores: compound 67 3 mg/kg; for spinal CT imaging scores: adalimumab 10 mg/kg, P<0.05 vs model group
Description: After adaptive feeding, SKG mice were used for the experiment. Except for 5 mice as the blank control group, the other 20 mice were intraperitoneally injected with Curdlan (3 mg per mouse) at week 0 and week 2 of the experiment to establish an AS mouse model, and were randomly divided into 4 groups: model group, positive control group treated with adalimumab (10 mg/kg), compound 30 group (3 mg/kg), and compound 67 group (3 mg/kg), with 5 mice in each group. Mice in the compound 30 and 67 groups were intragastrically administered compound 30 and 67 daily starting from week 3.3 until sacrifice; the positive control group received intraperitoneal injection of adalimumab injection (first administration at week 3.3, second at week 9). Body weight was measured every week to adjust the dosage.
Clinical symptom observation of the limbs and toes were conducted, and their redness and swelling were scored, with a total score of 16 points (4 points per foot).
• 0 = No swelling • 1 = Mild swelling and redness on the top of the foot • 2 = Severe swelling and redness on the top of the foot • 3 = Severe swelling and redness in the wrist or ankle joint • 4 = Severe swelling in the wrist or ankle joint and toes.
CT scans were performed on mice at Week 13.4 and 14.3 of the experiment to obtain imaging data of the mice's bones and joints. Image WL: 1400; WW: 2000.
• 1. Spine (total 2 points): 1 point for narrowed intervertebral space, 2 points for complete fusion. • 2. Sacroiliac joints (1 point for each side, total 2 points): 0.5 points for blurred and sclerotic articular surface, 0.5 points for narrowed joint space. • 3. Zygapophyseal joints of the spine (1 point for each side, total 2 points): 0.5 points for narrowed joint space, 1 point for complete fusion.
Analysis of variance (ANOVA) was performed using IBM SPSS Statistics software to obtain statistical results of the dataset, with P < 0.05 considered statistically significant.

[2] = Compound 67 1 mg/kg and 3 mg/kg, 8 weeks, vs SLE model group

T1 sequence (P21453 whole entry): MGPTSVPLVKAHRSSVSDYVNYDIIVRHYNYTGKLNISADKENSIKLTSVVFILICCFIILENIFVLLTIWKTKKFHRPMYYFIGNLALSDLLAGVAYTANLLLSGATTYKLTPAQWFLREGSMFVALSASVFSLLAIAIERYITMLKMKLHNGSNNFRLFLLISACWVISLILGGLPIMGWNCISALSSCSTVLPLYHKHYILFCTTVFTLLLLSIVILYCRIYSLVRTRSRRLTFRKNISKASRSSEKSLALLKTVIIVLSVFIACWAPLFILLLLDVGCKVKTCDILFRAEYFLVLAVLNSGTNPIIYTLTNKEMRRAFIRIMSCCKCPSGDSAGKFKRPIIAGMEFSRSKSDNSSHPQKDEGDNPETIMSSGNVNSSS

| Compound | EC50 (hS1P1) | CL_obs ([1]; IV (1 mg/kg)) | Vss_obs ([1]; IV (1 mg/kg)) | CL_obs ([1]; PO (10 mg/kg)) | Vss_obs ([1]; PO (10 mg/kg)) | AUC(0-t) ([1]; IV (1 mg/kg)) | Cmax ([1]; IV (1 mg/kg)) | half-life ([1]; IV (1 mg/kg)) | Tmax ([1]; IV (1 mg/kg)) | AUC(0-t) ([1]; PO (10 mg/kg)) | Cmax ([1]; PO (10 mg/kg)) | half-life ([1]; PO (10 mg/kg)) | Tmax ([1]; PO (10 mg/kg)) | bioavailability [1] | F (%) [1] | renal pathology (HE and PAS staining) (MRL/lpr mice; vs SLE model group) | serum anti-nuclear / anti-double-stranded DNA antibody level (MRL/lpr mice; 8 weeks, vs SLE model group) | Th1- and Th17-positive cells in spleen, Th1/Th2 and Th17/Treg ratios (MRL/lpr mice; vs SLE model group) | peripheral clinical symptom scores (SKG mice) | swelling of the wrist and ankle joints (SKG mice) | further results |
| --- | --- | --- | --- | --- | --- | --- | --- | --- | --- | --- | --- | --- | --- | --- | --- | --- | --- | --- | --- | --- | --- |
| CCc1cc(/C(C)=N/OCc2ccc(-c3cnc(F)cn3)c(C)c2)ccc1CN1CC[C@H](C(=O)O)C1 [Compound 67, (S, E)-1-(2-ethyl-4-(1-(((4-(5-fluoropyrazin-2-yl)-3-methylbenzyl)oxy)imino)ethyl)benzyl)pyrrolidine-3-carboxylic acid] | 0.195 ± 0.016 µM | 19.8 ± 0.67 mL/min/kg | 1.52 ± 0.02 L/kg | 25.8 ± 4.5 mL/min/kg | 4.88 ± 1.17 L/kg | 836 ± 27 ng·h/mL | 958 ± 45.9 ng/mL | 1.18 ± 0.01 h | 0.08 h | 6370 ± 1510 ng·h/mL | 986 ± 277 ng/mL | 2.17 ± 0.11 h | 1.83 ± 1.89 h | 76.2% | 76.21% | inflammatory cell infiltration was significantly reduced | significantly reduces the anti-double-stranded DNA antibody level; also recorded: significantly reduce the level of anti-double-stranded DNA antibody | regulates the number and ratio of T lymphocytes; also recorded: significantly reduce the number of Th1- and Th17-positive cells | significantly lower | significantly reduced swelling of the wrist and ankle joints | serum creatinine level (MRL/lpr mice; [2]): significantly reduce the serum creatinine level; urinary microalbumin level (MAU) (MRL/lpr mice; [2]): significantly reduced the urinary microalbumin level; spinal CT imaging scores (SKG mice): significantly lower imaging scores |
| CCc1cc(/C(C)=N/OCc2ccc(-c3ccccc3)c(C)c2)ccc1CN1CC[C@H](C(=O)O)C1 [Compound 30] | 0.0876 ± 0.00335 µM | 20.2 ± 7.33 mL/min/kg | 3.59 ± 1.16 L/kg | 17 ± 1.3 mL/min/kg | 4.08 ± 0.32 L/kg | 824 ± 284 ng·h/mL | 438 ± 82.6 ng/mL | 2.15 ± 0.06 h | 0.08 h | 9860 ± 794 ng·h/mL | 1030 ± 91.9 ng/mL | 2.78 ± 0.12 h | 2 h | 120% | 119.7% | improves renal pathological injury; also recorded: renal interstitial inflammatory cell infiltration was significantly reduced | dose-dependently reduces; also recorded: markedly decreased | regulates the number and ratio of T lymphocytes; also recorded: significantly reduce the number of Th1- and Th17-positive cells | significantly lower | significantly reduced swelling of the wrist and ankle joints | subcutaneous nodules (MRL/lpr mice; SLE mice, vs model): dose-dependently reduces; also recorded: significantly reduced subcutaneous nodules; body weight gain and mortality (MRL/lpr mice; continuous administration for 8 weeks, vs SLE model group): reduces the mortality rate; also recorded: prevented body weight gain and reduced mortality in a dose-dependent manner; spinal CT imaging scores (SKG mice): significantly lower imaging scores |
